# Read-outs that look alike come from different tables or passages of the source.
# Tests used:
# [1] = system: HIV-1 in chronic infected U1 cells (HIV monocytes); assay: HIV chronic study, monocyte HIV replication; type: cell-based; conditions: Human immunodeficiency virus 1, Monocyte
# Protocol: (§1) These cells were treated with test samples.
# HIV = assay: In vitro acute model for HIV, viral replication; type: cell-based; conditions: read-out: inhibited viral replication
# Protocol: In an in vitro acute model for HIV carbendazim inhibited viral replication by 100% at 4 μg/ml and AZT inhibited viral replication by 98% at 1 μg/ml. Thiabendazole inhibited viral replication by 98% at 60 μg/ml.
# [2] = system: colon tumor cells (HT-29); assay: Related study, colon tumor cells, optical density (Table 3); type: cell-based, human; conditions: for Optical Density: 0-Control 0.398
# From the text: (§2) Table 3 summarizes the results
# [3] = system: breast tumor cells (MCF-7); assay: Related study, breast tumor cells, optical density (Table 3); type: cell-based; conditions: for Optical Density: 0-Control 0.245
# From the text: as §2
# lung tumor cells (A-549) = assay: Related study, lung tumor cells, optical density (Table 3); type: cell-based, human; conditions: for Optical Density: 0-Control 0.600
# From the text: as §2
# [4] = system: HIV-1 in chronic infected ACH-2 cells (T-cell); assay: HIV chronic study, T-cell HIV replication; type: cell-based; conditions: Human immunodeficiency virus 1, ACH-2
# Protocol: as §1
# HIV-1 = assay: HIV chronic study, therapeutic index
# Protocol: Chronic HIV-1 infected cells U1 were derived from an acute HIV-1 infection of the promonocytic cell line, U937. The chronic HIV-1 infected cells, ACH-2 were derived from an acute HIV-1 infection of the T cell line, A3.01.
# These cells were cultured in medium and the phorbol ester, PMA. […] Cell viability was measured when these cell lines were treated with the test compounds.
# In addition, the number of institute positive HIV mRNA expressing cells per microscopic field is measured. Comparisons can be made from these numbers since the same number of cells were adhered to the glass slides for each drug concentration (10×10^6 cells/ml).
# melanoma = assay: In vivo mouse model for melanoma, combination with Navelbine, survival time
# melanoma, B 16 = assay: In vivo mouse model for melanoma, life span
# [5] = Toxicity to normal healthy cells (Table 2); type: cell-based; conditions: read-out: EC-50 (the source's name)
# From the text: The EC50 is the concentration at which one half of the cells are killed.
# (§3) In normal healthy cells, the following results were obtained.
# lung A549 tumors = assay: Mouse model for lung cancer, subcutaneous tumor growth; type: in vivo; conditions: same dose (500 mg/kg); A549 implanted subcutaneously
# Protocol: (§4) In a mouse model for breast, lung and colon cancer Carbendazim slowed tumor growth. MX1 breast cancer tumors implanted subcutaneously under the mice skin were treated with 500 mg/kg of Carbendazim. Tumor growth was slowed by 42%. Carbendazim slowed tumor growth in lung A549 tumors implanted subcutaneously under the mice skin by 57% at the same dose. In a screening test of HT29 tumors implanted subcutaneously under the mice skin, tumor growth was slowed 54% at 2500 mg/kg dose of Carbendazim.
# normal healthy cells = assay: Toxicity to normal healthy cells, overall comparison; type: cell-based; conditions: versus adriamycin
# From the text: as §3
# HT29 colon tumor cells = assay: MTT cell viability, colon tumor cells (Table 1); type: cell-based; conditions: Homo sapiens, HT-29, 120 h, approx. 5 days, read-out: EC-50 Result
# Protocol: (§5) The following cell culture tests were performed to test the toxicity of the benzimidazole compounds on colon, breast and lung human tumor cells. The viability of the cells were tested by looking at MTT (3-[4,5-dimethylthiazol-2-yl]-2,5-diphenyltetrazolium bromide) reduction. MTT assay is a well known measure of cell viability.
# (§6) The colon tumor cells (HT29 from American Type Culture Collection (ATCC)) and the breast cells (MX1 from cell lines from ATCC) were cultured in Eagle's Miminal Essential Medium with 10% fetal bovine serum. The lung tumor cells (A549 from ATCC cell lines) were cultured in Ham's F12 medium with 10% fetal bovine serum.
# (§7) The tumor cells were passaged and seeded into culture flasks at the desired cell densities. The culture medium was decanted and the cell sheets were washed twice with phosphate buffered saline (PBS). The cells were trypsinized and triturated prior to seeding the flasks. Unless otherwise indicated the cultures were incubated at 37±1° C. in a humidified atmosphere of 5±1% carbon dioxide in air. The cultures were incubated until they were 50-80% confluent.
# (§8) The cells were subcultured when the flasks were subconfluent. The medium was aspirated from the flasks and the cell sheets rinsed twice with PBS. Next, the Trypsin Solution was added to each flask to cover the cell sheet. The Trypsin Solution was removed after 30-60 seconds and the flasks were incubated at room temperature for two to six minutes. When 90% of the cells became dislodged, growth medium was added. The cells were removed by trituration and transferred to a sterile centrifuge tube. The concentration of cells in the suspension was determined, and an appropriate dilution was made to obtain a density of 5000 cells/ml. The cells were subcultured into the designated wells of the 96-well bioassay plates (200 microliter cell suspension per well). PBS was added to all the remaining wells to maintain humidity. The plates were then incubated overnight before test article treatment.
# (§9) Each dose of test article was tested by treating quadruplicate wells of cultures with 100 microliter of each dilution. Those wells designated as solvent controls received an additional 100 microliter of methanol control; negative controls wells received an additional 100 microliters of treatment medium. PBS was added to the remaining wells not treated with test article or medium. The plates were then incubated for approximately 5 days.
# (§10) At the end of the 5 day incubation, each dose group was examined microscopically to assess toxicity. A 0.5 mg/ml dilution of MTT was made in treatment medium, and the dilution was filtered through a 0.45 micrometer filter to remove undissolved crystals. The medium was decanted from the wells of the bioassy plates. Immediately thereafter, […] of the filtered MTT solution was added to all test wells except for the two untreated blank test wells. The two blank wells received 200 microliters of treatment medium. The plates were returned to the incubator for about 3 hours. After incubation, the MTT containing medium was decanted. […] was added to each well and the plates were shaken at room temperature for about 2 hours.
# (§11) The absorbance at 550 mn (OD550) of each well was measured with a Molecular Devices (Menlo Park, Calif.) VMax plate reader.
# (§12) The mean OD550 of the solvent control wells and that of each test article dilution, and that of each of the blank wells and the positive control were calculated. The mean OD550 of the blank wells was subtracted from the mean of the solvent control wells, and test article wells, respectively to give the corresponding mean OD550. [formula]
# (§13) Dose response curves were prepared as semi-log plots with % of control on the ordinate (linear) and the test article concentration on the abscissa (logarithmic). The EC50 was interpolated from the plots for each test article.
# (§14) For the test articles administered in methanol, separate responses were prepared to correct for the methanol data. […]
# leukemia, P388 = assay: In vivo mouse model for leukemia, life span
# HT29 tumors = assay: Mouse model for colon cancer, subcutaneous tumor growth; type: in vivo; conditions: 2500 mg/kg; HT29 implanted subcutaneously; screening test
# Protocol: as §4
# MX1 breast cancer tumors = assay: Mouse model for breast cancer, subcutaneous tumor growth; type: in vivo; conditions: 500 mg/kg; MX1 implanted subcutaneously
# Protocol: as §4
# MX1 breast tumor cells = assay: MTT cell viability, breast tumor cells (Table 1); type: cell-based; conditions: Homo sapiens, 120 h, approx. 5 days, read-out: EC-50 Result
# Protocol: as §5, §6, §7, §8, §9, §10, §11, §12, §13, §14
# A549 lung tumor cells = assay: MTT cell viability, lung tumor cells (Table 1); type: cell-based; conditions: Homo sapiens, A549, 120 h, approx. 5 days, read-out: EC-50 Result
# Protocol: as §5, §6, §7, §8, §9, §10, §11, §12, §13, §14
# [6] = system: colon, breast and lung human tumor cells; assay: Colon, breast and lung tumor cells test, overall comparison; type: cell-based; conditions: positive control, in all cases
# Protocol: as §5, §6
# The tumor cells were passaged and seeded into culture flasks at the desired cell densities. The culture medium was decanted and the cell sheets were washed twice with phosphate buffered saline (PBS). The cells were trypsinized and triturated prior to seeding the flasks. […]
# The cells were subcultured when the flasks were subconfluent. […] The concentration of cells in the suspension was determined, and an appropriate dilution was made to obtain a density of 5000 cells/ml. […]
# as §11
# The mean OD550 of the solvent control wells and that of each test article dilution, and that of each of the blank wells and the positive control were calculated. […]
# [7] = bronchial cells, Broncheal Cells, first value
# [8] = bronchial cells, Broncheal Cells, second value
# [9] = kerotinoyle cells, second value
smiles,measurement,setting,value
"c1ccc2[nH]c(-c3cscn3)nc2c1 [Thiabendazole, 2-(4-thiazolyl)-1 H-benzimidazole]",inhibition at 60 µg/mL,"[1]; 60 μg/ml, read-out: suppressed replication in the HIV monocytes",74%
same,inhibition at 60 µg/mL,"HIV; Human immunodeficiency virus 1, 60 μg/ml",98%
same,killing of tumor cells,[2],effectively killed these cells
same,Optical Density,[2]; 0.87 ppm,0.852
same,Optical Density,[2]; 3.46 ppm,0.713
same,Optical Density,[2]; 17.3 ppm,0.204
same,Optical Density,[2]; 35 ppm,0.011
same,Optical Density,[2]; 173 ppm,0.005
same,killing of tumor cells,[3],effectively killed these cells
same,Optical Density,[3]; 0.87 ppm,0.507
same,Optical Density,[3]; 3.46 ppm,0.466
same,Optical Density,[3]; 17.3 ppm,0.258
same,Optical Density,[3]; 35 ppm,0.025
same,Optical Density,[3]; 173 ppm,0.007
same,killing of tumor cells,lung tumor cells (A-549),effectively killed these cells
same,Optical Density,lung tumor cells (A-549); 0.87 ppm,1.32
same,Optical Density,lung tumor cells (A-549); 3.46 ppm,1.12
same,Optical Density,lung tumor cells (A-549); 17.3 ppm,0.851
same,Optical Density,lung tumor cells (A-549); 35 ppm,0.411
same,Optical Density,lung tumor cells (A-549); 173 ppm,0.007
same,activation at 60 µg/mL,"[4]; 60 μg/ml, increase, read-out: T-cell HIV replication was increased",26%
Cc1cn([C@H]2C[C@H](N=[N+]=[N-])[C@@H](CO)O2)c(=O)[nH]c1=O [AZT],inhibition at 1 µg/mL,"[1]; 1 μg/ml, positive control, read-out: suppressed HIV monocytes replication",98%
same,inhibition at 1 µg/mL,"HIV; Human immunodeficiency virus 1, 1 μg/ml",98%
same,"therapeutic index (TI), the ratio of the toxic dose of drug to efficacious dose of drug",HIV-1,"12, 500"
same,inhibition at 1 µg/mL,"[4]; positive control AZT (1 μg/ml), read-out: suppressed T-cell HIV replication",60%
CCC1=C[C@@H]2CN(C1)Cc1c([nH]c3ccccc13)[C@@](C(=O)OC)(c1cc3c(cc1OC)N(C)[C@H]1[C@@](O)(C(=O)OC)[C@H](OC(C)=O)[C@]4(CC)C=CCN5CC[C@]31[C@@H]54)C2 [Navelbine],% increase in survival time vs. untreated mice,melanoma; Navelbine alone 0.5 mg/kg,190%
same,% increase in survival time vs. untreated mice,melanoma; Navelbine alone 1.0 mg/kg,245%
same,% increase in survival time vs. untreated mice,melanoma; Navelbine alone 2.0 mg/kg,265%
"COC(=O)Nc1nc2ccccc2[nH]1 [carbendazim, methyl 2-benzimidazole carbamate]",inhibition at 4 µg/mL,"HIV; Human immunodeficiency virus 1, 4 μg/ml",100%
same,increased the life span versus control,"melanoma, B 16; 1000 mg/kg",131%
same,increased the life span versus control,"melanoma, B 16; 2000 mg/kg",163%
same,increased the life span versus control,"melanoma, B 16; 4000 mg/kg",187%
same,CC50,[5]; [7],0.32 µg/mL
same,CC50,[5]; [8],0.506 µg/mL
same,CC50,"[5]; fibroblasts, first value",1.52 µg/mL
same,CC50,"[5]; fibroblasts, second value",1.42 µg/mL
same,CC50,"[5]; kerotinoyle cells, first value",0.752 µg/mL
same,CC50,[5]; [9],0.822 µg/mL
same,slowed tumor growth by,lung A549 tumors,57%
same,toxicity to normal healthy cells relative to adriamycin,normal healthy cells,much less toxic to normal healthy cells than adriamycin
same,IC50,"HT29 colon tumor cells; HT29, first column",0.621 µg/mL
same,IC50,"HT29 colon tumor cells; HT29, second column",0.662 µg/mL
same,increased the life span of the mice versus control,"leukemia, P388; 1000 mg/kg",129%
same,increased the life span of the mice versus control,"leukemia, P388; 2000 mg/kg",148%
same,increased the life span of the mice versus control,"leukemia, P388; 4000 mg/kg",189%
same,tumor growth was slowed,HT29 tumors,54%
same,Tumor growth was slowed by,MX1 breast cancer tumors,42%
same,IC50,"MX1 breast tumor cells; MX1, first column",0.829 µg/mL
same,IC50,"MX1 breast tumor cells; MX1, second column",0.856 µg/mL
same,IC50,"A549 lung tumor cells; A549, first column",0.856 µg/mL
same,IC50,"A549 lung tumor cells; A549, second column",0.836 µg/mL
"CCCCNC(=O)n1c(NC(=O)OC)nc2ccccc21 [benomyl, methyl 1-(butylcarbamoyl)2-benzimidazolecarbamate]",CC50,[5]; [7],0.728 µg/mL
same,CC50,[5]; [8],0.682 µg/mL
same,CC50,"[5]; fibroblasts, first value",3.24 µg/mL
same,CC50,"[5]; fibroblasts, second value",2.81 µg/mL
same,CC50,"[5]; kerotinoyle cells, first value",3.26 µg/mL
same,CC50,[5]; [9],2.4 µg/mL
same,toxicity to normal healthy cells relative to adriamycin,normal healthy cells,much less toxic to normal healthy cells than adriamycin
same,IC50,"HT29 colon tumor cells; HT29, first column",0.742 µg/mL
same,IC50,"HT29 colon tumor cells; HT29, second column",0.747 µg/mL
same,IC50,"MX1 breast tumor cells; MX1, first column",1.42 µg/mL
same,IC50,"MX1 breast tumor cells; MX1, second column",2.42 µg/mL
same,IC50,"A549 lung tumor cells; A549, first column",0.98 µg/mL
same,IC50,"A549 lung tumor cells; A549, second column",1.02 µg/mL
COc1cccc2c1C(=O)c1c(O)c3c(c(O)c1C2=O)C[C@@](O)(C(=O)CO)C[C@@H]3O[C@H]1C[C@H](N)[C@H](O)[C@H](C)O1 [Adriamycin],CC50,[5]; [7],0.015 µg/mL
same,CC50,[5]; [8],0.002 µg/mL
same,CC50,"[5]; fibroblasts, first value",0.065 µg/mL
same,CC50,"[5]; fibroblasts, second value",0.1 µg/mL
same,CC50,"[5]; kerotinoyle cells, first value",0.0035 µg/mL
same,CC50,[5]; [9],0.0093 µg/mL
same,IC50,"HT29 colon tumor cells; HT29, first column",0.03 µg/mL
same,IC50,"HT29 colon tumor cells; HT29, second column",0.006 µg/mL
same,toxicity relative to the test materials,[6],more toxic than any of the test materials by one or two logs
same,IC50,"MX1 breast tumor cells; MX1, first column",0.02 µg/mL
same,IC50,"MX1 breast tumor cells; MX1, second column",0.001 µg/mL
same,IC50,"A549 lung tumor cells; A549, first column",0.03 µg/mL
same,IC50,"A549 lung tumor cells; A549, second column",0.009 µg/mL

# From patent US5929099A, “Pharmaceutical composition for inhibiting the growth of cancers” (Procter & Gamble Co., priority 1996, dated 1999)
